Calls of active or inactive are those of the source. How the calls were made is not given here.
System: CCRIS mutagenicity, Ames/micronucleus/aberration tests
Experiment: CCRIS mutagenicity studies
[1] = Test System: AMES SALMONELLA TYPHIMURIUM, Strain/Indicator: TA100, Metabolic Activation: NONE, Method: PREINCUBATION
[2] = Test System: AMES SALMONELLA TYPHIMURIUM, Strain/Indicator: TA100, Metabolic Activation: NONE, Method: STANDARD PLATE
[3] = Test System: AMES SALMONELLA TYPHIMURIUM, Strain/Indicator: TA98, Metabolic Activation: NONE, Method: STANDARD PLATE

**Q.** How did the mutagenic call (Test System: AMES SALMONELLA TYPHIMURIUM, Strain/Indicator: TA98, Metabolic Activation: HAMSTER, LIVER, S-9, AROCLOR 1254 (10%), Method: PREINCUBATION) turn out when Cc1ccccc1OP(=O)(Oc1ccccc1)Oc1ccccc1 was run?
**A.** inactive; negative

**Q.** What about the mutagenic call (Test System: AMES SALMONELLA TYPHIMURIUM, Strain/Indicator: TA98, Metabolic Activation: NONE, Method: PREINCUBATION) of the same compound?
**A.** inactive; negative

**Q.** And the mutagenic call (Test System: AMES SALMONELLA TYPHIMURIUM, Strain/Indicator: TA98, Metabolic Activation: RAT, LIVER, S-9, AROCLOR 1254 (10%), Method: PREINCUBATION)?
**A.** inactive; negative

**Q.** What about the mutagenic call (Test System: AMES SALMONELLA TYPHIMURIUM, Strain/Indicator: TA100, Metabolic Activation: HAMSTER, LIVER, S-9, AROCLOR 1254 (10%), Method: PREINCUBATION) of the same compound?
**A.** inactive; negative

**Q.** And the mutagenic call [1]?
**A.** inactive; negative

**Q.** What about the mutagenic call (Test System: AMES SALMONELLA TYPHIMURIUM, Strain/Indicator: TA100, Metabolic Activation: RAT, LIVER, S-9, AROCLOR 1254 (10%), Method: PREINCUBATION) of the same compound?
**A.** inactive; negative

**Q.** And the mutagenic call (Test System: AMES SALMONELLA TYPHIMURIUM, Strain/Indicator: TA1535, Metabolic Activation: HAMSTER, LIVER, S-9, AROCLOR 1254 (10%), Method: PREINCUBATION)?
**A.** inactive; negative

**Q.** And the mutagenic call (Test System: AMES SALMONELLA TYPHIMURIUM, Strain/Indicator: TA1535, Metabolic Activation: NONE, Method: PREINCUBATION)?
**A.** inactive; negative

**Q.** And the mutagenic call (Test System: AMES SALMONELLA TYPHIMURIUM, Strain/Indicator: TA1535, Metabolic Activation: RAT, LIVER, S-9, AROCLOR 1254 (10%), Method: PREINCUBATION)?
**A.** inactive; negative

**Q.** And the mutagenic call (Test System: AMES SALMONELLA TYPHIMURIUM, Strain/Indicator: TA1537, Metabolic Activation: HAMSTER, LIVER, S-9, AROCLOR 1254 (10%), Method: PREINCUBATION)?
**A.** inactive; negative

**Q.** What about the mutagenic call (Test System: AMES SALMONELLA TYPHIMURIUM, Strain/Indicator: TA1537, Metabolic Activation: NONE, Method: PREINCUBATION) of the same compound?
**A.** inactive; negative

**Q.** What about the mutagenic call (Test System: AMES SALMONELLA TYPHIMURIUM, Strain/Indicator: TA1537, Metabolic Activation: RAT, LIVER, S-9, AROCLOR 1254 (10%), Method: PREINCUBATION) of the same compound?
**A.** inactive; negative

**Q.** What does the source list for Cn1c(N)nc2ccccc21?
**A.** mutagenic call (Test System: AMES SALMONELLA TYPHIMURIUM, Strain/Indicator: TA98, Metabolic Activation: RAT, LIVER, S-9, AROCLOR 1254, Method: PREINCUBATION): active; positive; mutagenic call (Test System: AMES SALMONELLA TYPHIMURIUM, Strain/Indicator: TA100, Metabolic Activation: RAT, LIVER, S-9, AROCLOR 1254, Method: PREINCUBATION): active; positive

**Q.** Which mutagenic call (Test System: AMES SALMONELLA TYPHIMURIUM, Strain/Indicator: TA100, Metabolic Activation: S-9, Method: PREINCUBATION) does the source give for CCc1cccc2cccnc12 here?
**A.** active; positive

**Q.** What does the source list for CCCCOO?
**A.** mutagenic call [2]: inactive; negative; mutagenic call (Test System: AMES SALMONELLA TYPHIMURIUM, Strain/Indicator: TA102, Metabolic Activation: NONE, Method: STANDARD PLATE): active; positive

**Q.** For CC(C)(CO)[C@@H](O)C(=O)NCCCO, which mutagenic call [3] is on record?
**A.** inactive; negative

**Q.** And the mutagenic call (Test System: AMES SALMONELLA TYPHIMURIUM, Strain/Indicator: TA98, Metabolic Activation: RAT, LIVER, S-9, AROCLOR 1254, Method: STANDARD PLATE)?
**A.** inactive; negative

**Q.** What about the mutagenic call [2] of the same compound?
**A.** inactive; negative

**Q.** What about the mutagenic call (Test System: AMES SALMONELLA TYPHIMURIUM, Strain/Indicator: TA100, Metabolic Activation: RAT, LIVER, S-9, AROCLOR 1254, Method: STANDARD PLATE) of the same compound?
**A.** inactive; negative

**Q.** And the mutagenic call (Test System: AMES SALMONELLA TYPHIMURIUM, Strain/Indicator: TA1535, Metabolic Activation: NONE, Method: STANDARD PLATE)?
**A.** inactive; negative

**Q.** What about the mutagenic call (Test System: AMES SALMONELLA TYPHIMURIUM, Strain/Indicator: TA1535, Metabolic Activation: RAT, LIVER, S-9, AROCLOR 1254, Method: STANDARD PLATE) of the same compound?
**A.** inactive; negative

**Q.** What about the mutagenic call (Test System: AMES SALMONELLA TYPHIMURIUM, Strain/Indicator: TA1537, Metabolic Activation: NONE, Method: STANDARD PLATE) of the same compound?
**A.** inactive; negative

**Q.** What about the mutagenic call (Test System: AMES SALMONELLA TYPHIMURIUM, Strain/Indicator: TA1537, Metabolic Activation: RAT, LIVER, S-9, AROCLOR 1254, Method: STANDARD PLATE) of the same compound?
**A.** inactive; negative

**Q.** And the mutagenic call (Test System: AMES SALMONELLA TYPHIMURIUM, Strain/Indicator: TA1538, Metabolic Activation: NONE, Method: STANDARD PLATE)?
**A.** inactive; negative

**Q.** What about the mutagenic call (Test System: AMES SALMONELLA TYPHIMURIUM, Strain/Indicator: TA1538, Metabolic Activation: RAT, LIVER, S-9, AROCLOR 1254, Method: STANDARD PLATE) of the same compound?
**A.** inactive; negative

**Q.** And the mutagenic call (Test System: E. COLI, Strain/Indicator: WP2, Metabolic Activation: NONE, Method: STANDARD PLATE)?
**A.** inactive; negative

**Q.** And the mutagenic call (Test System: E. COLI, Strain/Indicator: WP2, Metabolic Activation: RAT, LIVER, S-9, AROCLOR 1254, Method: STANDARD PLATE)?
**A.** inactive; negative

**Q.** With FC(F)(F)I as the compound, how does the mutagenic call (Test System: AMES SALMONELLA TYPHIMURIUM, Strain/Indicator: TA98, Metabolic Activation: NONE, Method: DESICCATOR) read?
**A.** active; positive

**Q.** And the mutagenic call (Test System: AMES SALMONELLA TYPHIMURIUM, Strain/Indicator: TA98, Metabolic Activation: RAT, LIVER, S-9, AROCLOR 1254, Method: DESICCATOR)?
**A.** active; positive

**Q.** What about the mutagenic call (Test System: AMES SALMONELLA TYPHIMURIUM, Strain/Indicator: TA100, Metabolic Activation: NONE, Method: DESICCATOR) of the same compound?
**A.** active; positive

**Q.** What about the mutagenic call (Test System: AMES SALMONELLA TYPHIMURIUM, Strain/Indicator: TA100, Metabolic Activation: RAT, LIVER, S-9, AROCLOR 1254, Method: DESICCATOR) of the same compound?
**A.** active; positive

**Q.** What about the mutagenic call (Test System: AMES SALMONELLA TYPHIMURIUM, Strain/Indicator: TA1535, Metabolic Activation: NONE, Method: DESICCATOR) of the same compound?
**A.** active; positive

**Q.** What about the mutagenic call (Test System: AMES SALMONELLA TYPHIMURIUM, Strain/Indicator: TA1535, Metabolic Activation: RAT, LIVER, S-9, AROCLOR 1254, Method: DESICCATOR) of the same compound?
**A.** active; positive

**Q.** And the mutagenic call (Test System: AMES SALMONELLA TYPHIMURIUM, Strain/Indicator: TA1537, Metabolic Activation: NONE, Method: DESICCATOR)?
**A.** active; positive

**Q.** What about the mutagenic call (Test System: AMES SALMONELLA TYPHIMURIUM, Strain/Indicator: TA1537, Metabolic Activation: RAT, LIVER, S-9, AROCLOR 1254, Method: DESICCATOR) of the same compound?
**A.** active; positive

**Q.** What about the mutagenic call (Test System: AMES SALMONELLA TYPHIMURIUM, Strain/Indicator: TA1538, Metabolic Activation: NONE, Method: DESICCATOR) of the same compound?
**A.** inactive; negative

**Q.** And the mutagenic call (Test System: AMES SALMONELLA TYPHIMURIUM, Strain/Indicator: TA1538, Metabolic Activation: RAT, LIVER, S-9, AROCLOR 1254, Method: DESICCATOR)?
**A.** inactive; negative

**Q.** And the mutagenic call (Test System: MOUSE LYMPHOMA, Strain/Indicator: L5178Y (TK+/TK-), Metabolic Activation: NONE, Method: SUSPENSION/PLATE)?
**A.** inactive; negative

**Q.** What about the mutagenic call (Test System: MOUSE LYMPHOMA, Strain/Indicator: L5178Y (TK+/TK-), Metabolic Activation: RAT, LIVER, S-9, AROCLOR 1254, Method: SUSPENSION/PLATE) of the same compound?
**A.** inactive; negative

**Q.** OC1C=CC=CC1O (stereo not given) was tested. Which mutagenic call [3] did it give?
**A.** inactive; negative

**Q.** What about the mutagenic call (Test System: AMES SALMONELLA TYPHIMURIUM, Strain/Indicator: TA98, Metabolic Activation: RAT, LIVER, S-9, PHENOBARBITAL, Method: STANDARD PLATE) of the same compound?
**A.** inactive; negative

**Q.** And the mutagenic call [1]?
**A.** inactive; negative

**Q.** What about the mutagenic call [2] of the same compound?
**A.** inactive; negative

**Q.** And the mutagenic call (Test System: AMES SALMONELLA TYPHIMURIUM, Strain/Indicator: TA100, Metabolic Activation: RAT, LIVER, S-9, PHENOBARBITAL, Method: PREINCUBATION)?
**A.** active; positive

**Q.** What about the mutagenic call (Test System: AMES SALMONELLA TYPHIMURIUM, Strain/Indicator: TA100, Metabolic Activation: RAT, LIVER, S-9, PHENOBARBITAL, Method: STANDARD PLATE) of the same compound?
**A.** active; positive

**Q.** What about the mutagenic call (Test System: AMES SALMONELLA TYPHIMURIUM, Strain/Indicator: TM677/8-AZAGUANINE, Metabolic Activation: NONE, Method: PREINCUBATION) of the same compound?
**A.** inactive; negative

**Q.** What about the mutagenic call (Test System: AMES SALMONELLA TYPHIMURIUM, Strain/Indicator: TM677/8-AZAGUANINE, Metabolic Activation: NONE, Method: STANDARD PLATE) of the same compound?
**A.** active; positive

**Q.** What about the mutagenic call (Test System: AMES SALMONELLA TYPHIMURIUM, Strain/Indicator: TM677/8-AZAGUANINE, Metabolic Activation: RAT, LIVER, S-9, PHENOBARBITAL, Method: PREINCUBATION) of the same compound?
**A.** active; positive
